These results are taken from paper PMC8347686, “Thiourea Derivatives, Simple in Structure but Efficient Enzyme Inhibitors and Mercury Sensors” (Molecules, 2021).

As usually defined, the IC50 is the midpoint of a concentration-inhibition curve. The term inhibition denotes the change of the read-out against control, counted positive when it falls.

Test [1] addresses T1, AChE (Electrophorus electricus, UniProt O42275).
T1 construct: The enzyme AChE is derived from Electric eel and BChE from equine serum; from tissue
Kind of test: biochemical. Particulars: for inhibition at 62.5 µg/mL: Conc. 62.5 µg/mL; for inhibition at 125 µg/mL: Conc. 125 µg/mL; for inhibition at 250 µg/mL: Conc. 250 µg/mL; for inhibition at 500 µg/mL: Conc. 500 µg/mL; for inhibition at 1000 µg/mL: Conc. 1000 µg/mL. As to the method: (§1) The enzyme AChE is derived from Electric eel and BChE from equine serum. Buffer of phosphate, 0.1 M at pH 8.0 was prepared to whom varied concentration ([…]–1000 μg/mL) of the respective compound was added. The solution of AChE was diluted to 0.03 U/mL from 518 U/mg, similarly BChE from 7–16 U/mg to 0.01 U/mL at the given pH condition. Distilled water was used as solvent, for preparation of 0.5 mM acetylthiocholine iodide (ATchI), 0.2273 mM 5,5′-dithiobis-2-nitrobenzoic acid (DTNB) and 0.5 mM butyrylthiocholine iodide (BTchI). All solutions were stored at 8 °C in a refrigerator prior to performing the experiment.
(§2) Enzyme solution (5 μL), corresponding compound (205 μL), and DTNB reagent (5 μL) were mixed in a cuvette. The solution was incubated for 15 min at 30 °C followed by addition of 5 μL of the substrate solution. Absorbance of the incubated sample was measured at 412 nm by a double-beam spectrophotometer (Thermo Electron Corporation, USA) for 4 min along with the reaction time at 30 °C. The well-established Galanthamine was used as positive control and all experiments were performed in triplicate. The percent enzyme activity and enzyme inhibition by control and test samples were calculated from the rate of absorption with respect to change in time (V = ΔAbs/Δt) using the same procedure as reported previously.

The target in test [2] is T2, BChE (Equus caballus, UniProt P81908).
T2 construct: The enzyme AChE is derived from Electric eel and BChE from equine serum; from tissue; host or cells: equine serum
Nature of the test: Ellman's assay, BChE inhibition. The format is biochemical. The settings on record: for inhibition at 62.5 µg/mL: Conc. 62.5 µg/mL; for inhibition at 125 µg/mL: Conc. 125 µg/mL; for inhibition at 250 µg/mL: Conc. 250 µg/mL; for inhibition at 500 µg/mL: Conc. 500 µg/mL; for inhibition at 1000 µg/mL: Conc. 1000 µg/mL. As for the experimental part:
as §1, §2

Test [3] concerns mushroom tyrosinase. Set-up: method as in PMID 21978680, PMID 28904627. Particulars: ref [6],[42]; cited from earlier work.
For test [4], the system named is melanin B16 cells. Details: method as in PMID 21978680, PMID 28904627. Particulars: ref [6],[42]; read-out: IC50 as melanin B16 inhibitor; cited from earlier work.

T1 sequence (O42275 24-633): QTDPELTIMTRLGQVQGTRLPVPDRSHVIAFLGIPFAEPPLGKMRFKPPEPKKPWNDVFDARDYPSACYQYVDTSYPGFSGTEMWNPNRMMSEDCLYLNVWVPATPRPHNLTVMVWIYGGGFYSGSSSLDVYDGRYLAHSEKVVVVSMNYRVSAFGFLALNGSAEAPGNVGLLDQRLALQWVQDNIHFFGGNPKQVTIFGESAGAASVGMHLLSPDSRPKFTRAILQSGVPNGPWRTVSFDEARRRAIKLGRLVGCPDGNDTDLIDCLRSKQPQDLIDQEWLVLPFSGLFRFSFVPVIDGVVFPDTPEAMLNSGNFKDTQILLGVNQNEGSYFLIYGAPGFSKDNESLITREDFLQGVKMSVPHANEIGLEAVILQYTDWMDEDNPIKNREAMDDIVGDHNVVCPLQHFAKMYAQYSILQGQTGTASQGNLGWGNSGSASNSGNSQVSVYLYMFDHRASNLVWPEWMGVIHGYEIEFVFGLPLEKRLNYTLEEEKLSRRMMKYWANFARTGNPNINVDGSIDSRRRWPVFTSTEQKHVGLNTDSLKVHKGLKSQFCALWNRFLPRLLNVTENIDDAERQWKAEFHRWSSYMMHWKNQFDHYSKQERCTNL
T2 sequence (P81908 whole entry): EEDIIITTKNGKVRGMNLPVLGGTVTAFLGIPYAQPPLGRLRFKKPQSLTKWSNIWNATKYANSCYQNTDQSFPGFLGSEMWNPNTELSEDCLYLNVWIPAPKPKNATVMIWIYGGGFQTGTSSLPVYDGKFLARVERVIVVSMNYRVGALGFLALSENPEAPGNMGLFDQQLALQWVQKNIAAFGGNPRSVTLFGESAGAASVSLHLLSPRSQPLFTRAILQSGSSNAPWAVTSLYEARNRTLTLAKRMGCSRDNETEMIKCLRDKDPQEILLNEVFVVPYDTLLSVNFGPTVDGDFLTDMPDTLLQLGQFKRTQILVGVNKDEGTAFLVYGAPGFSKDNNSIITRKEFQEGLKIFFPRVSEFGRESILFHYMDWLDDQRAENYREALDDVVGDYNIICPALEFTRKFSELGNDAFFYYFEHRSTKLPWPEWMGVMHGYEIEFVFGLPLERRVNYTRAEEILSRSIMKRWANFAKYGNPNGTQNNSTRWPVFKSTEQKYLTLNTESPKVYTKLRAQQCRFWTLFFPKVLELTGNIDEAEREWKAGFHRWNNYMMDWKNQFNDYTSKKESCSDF

In test [1], `CC(C)CNC(=S)NC1CCCCC1` [Compound 1, 1-isobutyl-3-cyclohexylthiourea] showed a concentration for half-maximal inhibition (IC50) of 415 µM, an inhibition at 62.5 µg/mL of 46.52 ± 0.38%, an inhibition at 125 µg/mL of 53.64 ± 0.16% and an inhibition at 250 µg/mL of 57.6 ± 1.7%. Moreover, in test [1], 500 µg/mL produced 63.94 ± 0.45% inhibition and the inhibition at 1000 µg/mL turned out to be 69.47 ± 0.22%. In test [2], this compound had a concentration for half-maximal inhibition (IC50) of 392 µM, an inhibition at 62.5 µg/mL of 46.9 ± 0.42%, an inhibition at 125 µg/mL of 56.4 ± 0.63% and an inhibition at 250 µg/mL of 61 ± 0.33%. In test [2], testing at 500 µg/mL gave an inhibition of 66.2 ± 0.73% and the inhibition at 1000 µg/mL was determined as 74.4 ± 0.68%.

For `CC(C)(C)NC(=S)NC1CCCCC1` [Compound 2, 1-tert-butyl-3-cyclohexylthiourea], in test [1], inhibition was half-maximal at 1400 µM (IC50), at 62.5 µg/mL the inhibition was 38.7 ± 0.68%, the inhibition at 125 µg/mL came out at 44.7 ± 1.25% and 250 µg/mL produced 48 ± 0.75% inhibition. Also, in test [1], the inhibition at 500 µg/mL was 56.3 ± 1.06% and at 1000 µg/mL the inhibition was 63.3 ± 0.98%. In test [2], this compound had an IC50 of 863 µM, an inhibition at 62.5 µg/mL of 41.3 ± 1.01%, an inhibition at 125 µg/mL of 46.7 ± 0.78% and an inhibition at 250 µg/mL of 51.4 ± 1.65%. In test [2], this compound registered an inhibition at 500 µg/mL of 57.9 ± 0.97% and an inhibition at 1000 µg/mL of 65.2 ± 0.72%.

In test [1], `S=C(Nc1cccc(Cl)c1)NC1CCCCC1` [Compound 3, 1-(3-chlorophenyl)-3-cyclohexylthiourea] had an IC50 of 186 µM, an inhibition at 62.5 µg/mL of 51.9 ± 1.16%, an inhibition at 125 µg/mL of 57.34 ± 0.55% and an inhibition at 250 µg/mL of 61.36 ± 0.49%. For the same compound, in test [1], 500 µg/mL produced 67.39 ± 0.49% inhibition. In test [2], this compound showed an IC50 of 223 µM, an inhibition at 62.5 µg/mL of 49.9 ± 0.65%, an inhibition at 125 µg/mL of 57.2 ± 0.57% and an inhibition at 250 µg/mL of 65.5 ± 1.04%. In test [2], this compound came in with an inhibition at 500 µg/mL of 71.3 ± 1.11% and an inhibition at 1000 µg/mL of 76.7 ± 0.66%.

In test [1], `CCCCN(CCCC)C(=S)Nc1ccccc1` [Compound 4, 1-(1,1-dibutyl)-3-phenylthiourea] gave an IC50 of 219 µM, an inhibition at 62.5 µg/mL of 47.9 ± 0.47%, an inhibition at 125 µg/mL of 71.8 ± 1.5% and an inhibition at 250 µg/mL of 77.8 ± 2.26%. In test [1], this compound showed an inhibition at 500 µg/mL of 85.4 ± 0.2% and an inhibition at 1000 µg/mL of 93.6 ± 1.12%. In test [1] (Conc. 31.5 µg/mL), this compound displayed an inhibition at 31.5 µg/mL of 39 ± 0.88%. For the same compound, in test [2], it took 238 µM to reach half-maximal inhibition (IC50), 62.5 µg/mL produced 53.5 ± 0.9% inhibition, the inhibition at 125 µg/mL was found to be 77.4 ± 1.7% and the inhibition at 250 µg/mL worked out at 89.8 ± 1.5%. In addition, in test [2], at 500 µg/mL the inhibition was 94.4 ± 0.5% and the inhibition at 1000 µg/mL is 98%. Besides, 31.5 µg/mL produced 47.3 ± 0.7% inhibition in test [2] (Conc. 31.5 µg/mL).

In test [1], `S=C(Nc1ccccc1)Nc1ccccc1Cl` [Compound 5, 1-(2-chlorophenyl)-3-phenylthiourea] gave an IC50 of 1310 µM, an inhibition at 62.5 µg/mL of 29 ± 0.3%, an inhibition at 125 µg/mL of 35.5 ± 0.5% and an inhibition at 250 µg/mL of 41.7 ± 0.77%. In test [1], the inhibition at 500 µg/mL was 59.7 ± 0.61% and the inhibition at 1000 µg/mL came out at 66.79 ± 0.63%. In test [2], the IC50 was 1180 µM, the inhibition at 62.5 µg/mL is 31.7 ± 0.61%, the inhibition at 125 µg/mL stood at 37.5 ± 0.5% and the inhibition at 250 µg/mL is 44.5 ± 0.64%. In test [2], testing at 500 µg/mL gave an inhibition of 63.86 ± 0.6% and testing at 1000 µg/mL gave an inhibition of 71.6 ± 0.74%.

For `S=C(Nc1ccccc1)Nc1ccc(Cl)cc1` [Compound 6, 1-(4-chlorophenyl)-3-phenylthiourea], the “potency as mushroom tyrosinase inhibitor” value in test [3] was “moderate potency”. In test [4], the IC50 was 3.4 µM. In test [1], this compound showed an IC50 of 1080 µM, an inhibition at 62.5 µg/mL of 31.9 ± 0.48%, an inhibition at 125 µg/mL of 39 ± 0.48% and an inhibition at 250 µg/mL of 47.9 ± 0.96%. In test [1], the inhibition at 500 µg/mL is 61.6 ± 1.34% and at 1000 µg/mL the inhibition was 69.6 ± 1.12%. In test [2], this compound had an IC50 of 1010 µM, an inhibition at 62.5 µg/mL of 33 ± 1.15%, an inhibition at 125 µg/mL of 42.7 ± 0.89% and an inhibition at 250 µg/mL of 49 ± 0.58%. In test [2], this compound yielded an inhibition at 500 µg/mL of 63.03 ± 0.23% and an inhibition at 1000 µg/mL of 71.33 ± 0.49%.
